Reference: patent EP4810052A2, “HCRHR2 SELECTIVE POLYPEPTIDES” (Gubra A/S, priority 2023, dated 2026)
Where two headings read alike, the source gives them in different places. Starred links: 1 amine or outer side, 2 acyl side, 3 side chain; linkers in the order of their positions; H or OH if unused. Non-standard residues stand in square brackets, D forms with d. Residues, ends and D or L forms follow the SMILES beside them. Groups on a side chain read outwards from the residue. *: point of attachment. C20 diacid = O=C(O)CCCCCCCCCCCCCCCCCCC(=O)*; γGlu = O=C(O)[C@H](CCC(=O)[*:2])N[*:1]; NMeI = CC[C@H](C)[C@H](NC)C(=O)O; Nle = CCCC[C@H](N)C(=O)O; AEEA = NCCOCCOCC(=O)O; Aib = CC(C)(N)C(=O)O

Key:
[1] = target: T1, hCRHR2 (Homo sapiens, UniProt Q13324); test: HTRF cAMP assay, determination of hCRHR2 potency (peptide libraries 5 conc., purified peptides 11 conc.); format: cell-based
T1 sequence (Q13324 1-411): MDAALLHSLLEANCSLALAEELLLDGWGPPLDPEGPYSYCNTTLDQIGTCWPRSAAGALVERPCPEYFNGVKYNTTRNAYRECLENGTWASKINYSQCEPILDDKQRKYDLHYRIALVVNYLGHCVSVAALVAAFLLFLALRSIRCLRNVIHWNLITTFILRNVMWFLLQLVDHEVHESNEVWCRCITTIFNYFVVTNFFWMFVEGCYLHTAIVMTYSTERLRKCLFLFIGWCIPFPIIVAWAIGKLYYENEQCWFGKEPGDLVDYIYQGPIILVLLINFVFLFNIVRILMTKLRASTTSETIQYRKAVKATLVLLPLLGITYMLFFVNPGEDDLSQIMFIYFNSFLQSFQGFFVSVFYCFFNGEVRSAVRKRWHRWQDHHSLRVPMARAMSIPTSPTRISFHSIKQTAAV
How it was run: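 Read-out was HTRF competitive cAMP detection (d2-labelled cAMP, cryptate-labelled antibody) in suspended, freshly thawed CHO-K1 cells stably carrying human CRHR2.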

[2] = target: T2, hCRHR1 (Homo sapiens, UniProt P34998); test: HTRF cAMP assay, determination of hCRHR1 potency (peptide libraries 5 conc., purified peptides 11 conc.); format: cell-based
T2 sequence (P34998 24-415): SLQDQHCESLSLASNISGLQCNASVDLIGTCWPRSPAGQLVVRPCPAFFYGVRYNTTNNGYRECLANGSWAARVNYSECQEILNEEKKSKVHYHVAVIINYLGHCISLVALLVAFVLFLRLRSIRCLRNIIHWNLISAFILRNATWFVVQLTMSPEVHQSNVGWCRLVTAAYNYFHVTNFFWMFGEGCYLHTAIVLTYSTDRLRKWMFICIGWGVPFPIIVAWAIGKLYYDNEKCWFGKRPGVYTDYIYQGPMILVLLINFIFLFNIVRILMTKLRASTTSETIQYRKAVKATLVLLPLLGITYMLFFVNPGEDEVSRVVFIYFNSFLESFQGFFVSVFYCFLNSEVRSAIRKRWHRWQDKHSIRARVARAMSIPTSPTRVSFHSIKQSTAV
How it was run: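 Cellular cAMP was read by time-resolved FRET between d2-labelled cAMP and cryptate anti-cAMP antibody. The cells were freshly thawed suspension CHO-K1 cells stably expressing human CRHR1.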

Row | EC50 ([1]; library peptides, matched molecular pairs L vs Nle in position X^38, read-out: Potency hCRHR2 pEC50 (converted)) | EC50 ([2]; library peptides, matched molecular pairs L vs Nle in position X^38, read-out: Potency hCRHR1 pEC50 (converted)) | EC50 ([1]; Table 4, library peptides having X^38 = Nle, read-out: hCRHR2 pEC50 (converted)) | EC50 ([2]; Table 4, library peptides having X^38 = Nle, read-out: hCRHR1 pEC50 (converted)) | SMILES
1 | 0.501 nM | 25100 nM | – | – | CC[C@H](C)[C@H](N)C(=O)N[C@H](C(=O)N[C@@H](CC(C)C)C(=O)N[C@@H](CO)C(=O)N[C@@H](CC(C)C)C(=O)N[C@@H](CC(=O)O)C(=O)N[C@H](C(=O)N1CCC[C@H]1C(=O)N[C@H](C(=O)NCC(=O)N[C@@H](CC(C)C)C(=O)N[C@@H](CC(C)C)C(=O)N[C@@H](CCC(N)=O)C(=O)N[C@H](C(=O)N[C@@H](CC(C)C)C(=O)N[C@@H](CC(C)C)C(=O)N[C@@H](CCC(=O)O)C(=O)N[C@@H](CCC(N)=O)C(=O)N[C@@H](C)C(=O)N[C@@H](CCCNC(=N)N)C(=O)N[C@@H](C)C(=O)N[C@@H](CCCNC(=N)N)C(=O)N[C@@H](CO)C(=O)N[C@@H](C)C(=O)N[C@@H](CCCNC(=N)N)C(=O)N[C@@H](CCC(=O)O)C(=O)N[C@@H](CCC(N)=O)C(=O)N[C@@H](C)C(=O)N[C@@H](CCCCNC(=O)COCCOCCNC(=O)COCCOCCNC(=O)CC[C@H](NC(=O)CC[C@H](NC(=O)CCCCCCCCCCCCCCCCCCC(=O)O)C(=O)O)C(=O)O)C(=O)N[C@H](C(=O)N[C@@H](CC(N)=O)C(=O)N[C@@H](C)C(=O)N[C@@H](CCC(=O)O)C(=O)N[C@H](C(=O)N[C@@H](CC(C)C)C(=O)N[C@@H](C)C(=O)N[C@@H](CCC(=O)O)C(=O)N[C@H](C(N)=O)C(C)C)[C@@H](C)CC)[C@@H](C)O)[C@@H](C)CC)[C@@H](C)CC)C(C)C)C(C)C [compound 60] (H-IVLSLDVPIGLLQILLEQARARSAREQAK([AEEA-AEEA-γGlu-γGlu-C20 diacid])TNAEILAEV-NH2)
2 | – | – | 0.00794 nM | 794 nM | CCCC[C@H](NC(=O)[C@@H](NC(=O)[C@H](CCC(=O)O)NC(=O)[C@H](C)NC(=O)[C@H](CC(N)=O)NC(=O)C(C)(C)NC(=O)[C@H](CCCCNC(=O)COCCOCCNC(=O)COCCOCCNC(=O)CC[C@H](NC(=O)CC[C@H](NC(=O)CCCCCCCCCCCCCCCCCCC(=O)O)C(=O)O)C(=O)O)NC(=O)[C@H](C)NC(=O)[C@H](CCC(N)=O)NC(=O)[C@H](CCC(=O)O)NC(=O)[C@H](CCCNC(=N)N)NC(=O)[C@H](C)NC(=O)[C@H](C)NC(=O)[C@H](CCCNC(=N)N)NC(=O)[C@H](C)NC(=O)[C@H](CCCNC(=N)N)NC(=O)[C@H](C)NC(=O)[C@H](CCC(N)=O)NC(=O)[C@@H](NC(=O)[C@H](CC(C)C)NC(=O)[C@H](CC(C)C)NC(=O)[C@@H](NC(=O)[C@H](CCC(N)=O)NC(=O)[C@H](CC(C)C)NC(=O)[C@H](CC(C)C)NC(=O)CNC(=O)[C@@H](NC(=O)[C@@H]1CCCN1C(=O)[C@@H](NC(=O)[C@H](CC(=O)O)NC(=O)[C@H](CC(C)C)NC(=O)[C@H](CO)NC(=O)[C@H](CC(C)C)NC(=O)[C@@H](NC(=O)[C@@H](NC)[C@@H](C)CC)C(C)C)C(C)C)[C@@H](C)CC)[C@@H](C)CC)[C@@H](C)O)[C@@H](C)CC)C(=O)N[C@@H](C)C(=O)N[C@@H](CCC(=O)O)C(=O)N[C@H](C(N)=O)C(C)C [compound 134] (H-[NMeI]VLSLDVPIGLLQILLTQARARAAREQAK([AEEA-AEEA-γGlu-γGlu-C20 diacid])[Aib]NAEI[Nle]AEV-NH2)
